In BigSolDB 2.1:

Settings: in water

O=S(=O)([O-])c1ccc(Nc2nc(Nc3ccc(/C=C/c4ccc(Nc5nc(Nc6ccc(S(=O)(=O)[O-])cc6)nc(N6CCOCC6)n5)cc4S(=O)(=O)[O-])c(S(=O)(=O)[O-])c3)nc(N3CCOCC3)n2)cc1.[Na+].[Na+].[Na+].[Na+]
Settings	solubility (mole fraction)
273.15 K	0.00029
278.45 K	0.000399
283.35 K	0.000545
288.75 K	0.000757
293.25 K	0.00099
298.75 K	0.00137
303.15 K	0.00179
307.55 K	0.00219
310.75 K	0.00264
313.95 K	0.00319
